The values that follow come from patent publication US20180009764A1, “METHOD FOR TREATING MACROPHAGE MIGRATION INHIBITORY FACTOR (MIF)-IMPLICATED DISEASES AND CONDITIONS WITH IODO PYRIMIDINE DERIVATIVES” (UNIVERSITY OF LOUISVILLE RESEARCH FOUNDATION, INC., priority 2009, published 2018).

Data set [1] can be described thus: Caco-2 cell permeability and transport. As to conditions: human, Caco-2, pH 7.4. The format is in vitro ADME. A digest of the protocol: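 Caco-2 and MDR1-MDCK monolayers were run in triplicate, apical-to-basolateral and basolateral-to-apical, in modified Hanks buffer pH 7.4 with 1% BSA on the receiver side. Monolayer integrity was checked with atenolol and propranolol. Both sides were sampled at 2 h and quantified by LC/MS-MS.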

The test system of data set [2] is DU145 human prostate xenografts. Nature of the data set: In vivo efficacy in DU145 xenograft tumor model. On the set-up: species or system athymic nude mice. As to conditions: daily IP 40 mg/kg for 4 weeks; FIG. 8. The procedure: Athymic nude mice at 7-8 weeks of age were used for the study. Mice were housed in microisolator housing, with food and water provided as libitum, and quarantined for 4 days prior to the initiation of the study. DU145 cells were maintained in McCoy's 5A medium supplemented with 10% fetal bovine serum and 2 mM glutamine. Cells at 80% confluence were harvested using 0.25% trypsin/EDTA solution, washed once with PBS and resuspended in a mixture of serum-free medium/Matrigel (1:1 by volume) at a density of 3×10^6 cells/100 μl. 4 groups of 10 mice each were used in the experiment. DU145 cells suspended in 100 μl of a mixture of medium/Matrigel (1:1) were subcutaneously implanted in the right flank region. Animals were monitored for tumor growth daily after cell implantation. When tumor volumes reached 80-100 mm^3, mice were randomized into 4 groups of 10 mice each using only mice having tumor volumes closest to the mean value. Tumor volumes were measured using the formula V=L×W×H×π/6, where L and W represent the longer and shorter diameters of the tumor and H represents the height of the tumor. Treatment began the day after randomization. Act-MIF-001, ACT-MIF-002, and ACT-MIF-003 were administered daily by IP injection at a dose of 40 mg/kg for 4 weeks. Throughout the entire study, tumor volumes were measured twice weekly and body weights once weekly.

Data set [3] is described as follows: Solubility in varying solvents. To be noted: 21 °C, 20-22° C. The format is physicochemical.
Data set [4] concerns primary human T lymphocytes. The experiment in a line: Anti-CD3 induced T lymphocyte activation/proliferation (flow cytometry). The format is cell-based. To be noted: 25 μM. The method, then: In order to assess the ability of MIF antagonists to disrupt autoimmune-associated T cell activation, primary human T lymphocytes were prepared using standard Ficoll-gradient preparations. 1×10^6 lymphocytes/ml were resuspended in RPMI/10% FCS and plated onto anti-CD3 antibodies previously immobilized onto tissue culture plates. Control, vehicle control (0.1% DMSO), 25 μM 4-IPP or 25 μM ACT-003 were added to cells and allowed to incubate for 48 hours. Cells were lifted, washed and stained with anti-CD4 or anti-CD8 antibodies and then analyzed by flow cytometry.
To validate the effects of MIF antagonists on T lymphocyte activation, experiments were set up exactly as described above and, 48 hours later, treated and untreated lymphocytes were stained with an anti-CD25 antibody. CD25 is also known as the high affinity IL-2 receptor—a very well characterized and frequently marker of T lymphocyte activation.
In order to investigate the relative kinetics of when 4-IPP and ACT-003 are acting in blocking T lymphocyte activation, we repeated the experiment described above but harvested lymphocytes only 16 hours after anti-CD3 plating. At this early time point during T lymphocyte activation, CD69 is found to be expressed and is usually considered to be an “early marker” of lymphocyte activation.
Finally, to confirm that proliferation of CD4+ and CD8+ T lymphocytes is blocked by 4-IPP-based MIF antagonists, we repeated the experiment as described above, added labeled-BrdU to cells, stained with either labeled anti-CD4 or anti-CD8 antibodies and then assessed relative CD4/CD8 and BrdU labeling in each treatment group.

In data set [5] the target is T1, MIF (Mus musculus, UniProt P34884).
T1 construct: from tissue; host or cells: mouse liver (A7); liver, lung and brain of C57BL6 mice (A20)
Nature of the data set: MIF liver lysates enzymatic activity ex vivo (L-dopachrome tautomerase). To be noted: mice; IP 1 mg in corn oil every day for 3 days; livers 6 hours after last injection; FIG. 1. The method, then:
This experiment, using an ex-vivo approach and the tautomeric reaction of L-dopachrom, was designed to ascertain the level of inhibition of MIF following administration of the compounds of this invention via oral, IV, IP or any other route of administration. Mice were used in the example illustrated below, but other animals could be used as well. Groups of 3 mice were administered IP 1 mg of 4-IPP and ACT-002 resuspended in 100 μl of corn oil every day for 3 days. Mice were sacrificed 6 hours after the last injection and livers were harvested. ˜1 gram pieces of liver were lysed in PBS containing 1 mM NaVO4, 2 mM NaF and a protease inhibitor cocktail (Roche Biochemical, Indianapolis, Ind.) using dounce-homogenization on ice. 500 μg of liver lysates were added to a final volume of 700 μl PBS in plastic cuvettes. 4 mM L-3, 4-dihydroxyphenylalanine methyl ester and 8 mM sodium periodate (Sigma-Aldrich) were combined in a 3:2 ratio to form L-dopachrome methyl ester. 300 μL of L-dopachrome methyl ester was then immediately added to the cuvettes; the OD475 nm was measured 2 min and 4 min after addition of the L-dopachrome.

Data set [6] addresses T1, MIF. Nature of the data set: Oral bioavailability: ex vivo MIF enzymatic activity in liver, brain and lung after IP and PO dosing. Also noted: species or system C57BL6 mice. The procedure:
The compounds were administered orally (PO) and intraperitoneally (IP) to healthy animals. The inhibition of the MIF liver enzymatic activity determined ex vivo following IP and PO dosing is similar, indicating high oral bioavailability. Furthermore, brain and lung tissues were collected and processed to determine MIF enzymatic activity in these organs. […] Inhibition of MIF enzyme was determined […] following dosing of MIF-002 at 40 mg/kg once a day for three days, both IP and PO (normal C57BL6 mice, n=3). Tissues were collected at sacrifice and processed. Liver, lung, and brain tissues were collected, processed, and used for the determination of MIF enzyme activity. Values are expressed as a percentage calculated using DMSO as control (no inhibition).
Two additional compounds were tested, MIF-035 and MIF-041.

Each structure is given as a SMILES string. In brackets after ≈: the same amount, converted by molar mass.

Broadly, the efflux ratio is a quotient of directional permeabilities that is used to spot active efflux. A word on the solubility: it is the concentration that dissolves in the medium under given conditions. On to `Fc1ccccc1-c1cc(I)ncn1` [ACT-MIF-003, 4-Iodo-6-(2-fluorophenyl)pyrimidine], for which, in data set [1], the efflux ratio at 2 h came out at 1.2. Also, in data set [2], the Tumor growth inhibition entry is recorded as “significantly inhibited tumor growth”. The solubility was 15 mg/mL (≈ 50 mM) in data set [3] (aqueous with cosolvent or surfactant or cyclodextrin, Cremophor); 20 mg/mL (≈ 66.7 mM) in data set [3] (aqueous with cosolvent or surfactant or cyclodextrin, Ethanol/Tween 80); 15 mg/mL (≈ 50 mM) in data set [3] (oil or lipid, Corn oil); 216 mg/mL (≈ 720 mM) in data set [3] (organic solvent or mixture, DMSO); 85 mg/mL (≈ 283 mM) in data set [3] (organic solvent or mixture, Ethanol); 66 mg/mL (≈ 220 mM) in data set [3] (organic solvent or mixture, PEG-300). The solubility in data set [3] (organic solvent or mixture, Propane-diol) came out at 25 mg/mL (≈ 83.3 mM). Also, the CD69 expression result in data set [4] (16 hours, FIGS. 17 and 18) is recorded as “only a marginal effect on CD69 expression”. Moreover, the “CD4 and CD8 T lymphocytes after anti-CD3 activation” value in data set [4] (48 hours, FIGS. 13 and 14) was “significantly fewer CD4 and CD8 T lymphocytes”. The “Anti-CD3-induced CD25 expression” value in data set [4] (48 hours, FIGS. 15 and 16) is listed as “almost completely blocked the anti-CD3-induced CD25 expression”. Moreover, the “BrdU labeling of CD8+ and CD4+ T lymphocytes (proliferation)” value in data set [4] (48 hours, FIGS. 19 and 20) was “almost completely blocked BrdU labeling in both CD8+ and CD4+ T lymphocytes”.
In the case of `COc1ccc(-c2cc(I)ncn2)c(F)c1` [ACT-MIF-002, 4-Iodo-6-(2-fluoro-4-methoxyphenyl)pyrimidine], the “MIF liver enzyme inhibition” value at MIF [5] is on record as “significant in vivo inhibition of MIF”. On MIF [6] (40 mg/kg once a day for three days, IP and PO, FIG. 12), the “Inhibition of MIF enzymatic activity in brain and lungs” value was “inhibits MIF enzymatic activity in both the brain and the lungs”. Further, on MIF [6] (judged from ex vivo MIF inhibition after IP and PO dosing), the Oral bioavailability result is given as “orally bioavailable”. Moreover, the “Crossing of the blood brain barrier” value at MIF [6] (judged from ex vivo MIF inhibition in brain) was “crosses the brain blood barrier”.
